Assay results reported in ChEMBL document CHEMBL3400050, “The synthesis and evaluation of sesamol and benzodioxane derivatives as inhibitors of monoamine oxidase” (Bioorg Med Chem Lett, 2015).

How the values were obtained:
[1] = organism: Homo sapiens; test: Selectivity index, ratio of IC50 for human recombinant MAOA to IC50 for human recombinant MAOB
[2] = biological target: T1, Amine oxidase [flavin-containing] B (Homo sapiens, UniProt P27338); test: Inhibition of human recombinant MAOB using kynuramine substrate assessed as reduction in MAO-generated 4-hydroxyquinoline level by fluorescence spectrophotometry
T1 sequence (P27338 whole entry): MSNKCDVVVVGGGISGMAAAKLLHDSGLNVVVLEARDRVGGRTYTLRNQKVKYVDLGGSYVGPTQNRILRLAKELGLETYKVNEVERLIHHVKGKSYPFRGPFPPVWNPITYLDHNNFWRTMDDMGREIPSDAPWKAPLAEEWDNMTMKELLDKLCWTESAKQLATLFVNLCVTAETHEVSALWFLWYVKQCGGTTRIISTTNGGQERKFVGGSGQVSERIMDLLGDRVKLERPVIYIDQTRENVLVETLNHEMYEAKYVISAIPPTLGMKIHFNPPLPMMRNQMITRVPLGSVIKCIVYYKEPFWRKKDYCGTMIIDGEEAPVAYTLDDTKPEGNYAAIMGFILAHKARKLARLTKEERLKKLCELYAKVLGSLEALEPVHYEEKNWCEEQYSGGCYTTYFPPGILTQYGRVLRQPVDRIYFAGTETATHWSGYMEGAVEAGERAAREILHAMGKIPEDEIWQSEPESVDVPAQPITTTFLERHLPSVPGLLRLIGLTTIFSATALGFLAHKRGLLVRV

[3] = biological target: T2, Amine oxidase [flavin-containing] A (Homo sapiens, UniProt P21397); test: Inhibition of human recombinant MAOA using kynuramine substrate assessed as reduction in MAO-generated 4-hydroxyquinoline level by fluorescence spectrophotometry
T2 sequence (P21397 whole entry): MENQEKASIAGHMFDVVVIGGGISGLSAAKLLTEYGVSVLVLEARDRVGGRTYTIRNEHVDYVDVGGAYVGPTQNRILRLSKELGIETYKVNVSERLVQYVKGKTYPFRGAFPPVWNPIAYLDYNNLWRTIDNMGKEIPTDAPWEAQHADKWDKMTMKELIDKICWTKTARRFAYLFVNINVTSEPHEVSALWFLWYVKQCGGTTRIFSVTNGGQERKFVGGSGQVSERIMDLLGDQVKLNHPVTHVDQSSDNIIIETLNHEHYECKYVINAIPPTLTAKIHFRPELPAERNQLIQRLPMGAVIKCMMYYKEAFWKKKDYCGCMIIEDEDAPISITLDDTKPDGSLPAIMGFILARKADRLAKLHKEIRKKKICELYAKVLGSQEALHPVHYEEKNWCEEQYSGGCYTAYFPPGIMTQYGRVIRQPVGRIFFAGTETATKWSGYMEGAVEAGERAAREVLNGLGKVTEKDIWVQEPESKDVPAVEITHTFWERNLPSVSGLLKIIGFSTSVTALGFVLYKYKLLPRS

[4] = biological target: T2, Amine oxidase [flavin-containing] A; test: Inhibition of human recombinant MAOA at 100 uM using kynuramine substrate assessed as reduction in MAO-generated 4-hydroxyquinoline level by fluorescence spectrophotometry
[5] = biological target: T1, Amine oxidase [flavin-containing] B; test: Reversible inhibition of human recombinant MAOB pre-incubated for 15 mins at 4 times IC50 level subsequently dialysed for 24 hrs followed by two fold dilution with kynuramine substrate assessed as enzyme catalytic activity by measuring 4-hydroxyquinoline level after 20 mins by fluorescence spectrophotometry; parameters: scale not given: the % may be the effect or the level left
[6] = biological target: T1, Amine oxidase [flavin-containing] B; test: Competitive inhibition of human recombinant MAOB using kynuramine substrate assessed as reduction in MAO-generated 4-hydroxyquinoline level by Lineweaver-Burk plot
[7] = biological target: T1, Amine oxidase [flavin-containing] B; test: Reversible inhibition of human recombinant MAOB pre-incubated for 15 mins at 4 times IC50 level using kynuramine substrate assessed as enzyme catalytic activity by measuring 4-hydroxyquinoline level after 20 mins by fluorescence spectrophotometry; parameters: scale not given: the % may be the effect or the level left

Row | Compound | Ratio IC50 [1] | IC50 [2] | IC50 [3] | inhibition (INH) [4] | Activity [5] | Ki [6] | Activity [7]
1 | Clc1cccc(COc2ccc3c(c2)OCO3)c1 | 209 | 248 nM | 51800 nM | – | – | – | –
2 | c1ccc(COc2ccc3c(c2)OCCO3)cc1 | 215 | 168 nM | 36000 nM | – | – | – | –
3 | Brc1ccc(OCCOc2ccc3c(c2)OCCO3)cc1 | > 106 | 941 nM | – | Not Active | – | – | –
4 | Clc1cccc(COc2ccc3c(c2)OCCO3)c1 | 232 | 57 nM | 13200 nM | – | – | – | –
5 | Brc1cccc(COc2ccc3c(c2)OCCO3)c1 | 375 | 45 nM | 16900 nM | – | 87% | 41 nM | 21%
6 | Brc1cccc(COc2ccc3c(c2)OCO3)c1 | 234 | 164 nM | 38400 nM | – | – | – | –
7 | c1ccc(CCCOc2ccc3c(c2)OCCO3)cc1 | 74 | 947 nM | 70400 nM | – | – | – | –
8 | Clc1ccc(OCCOc2ccc3c(c2)OCCO3)cc1 | > 287 | 348 nM | – | Not Active | – | – | –

Continued, values first:

Row | Ratio IC50 [1] | IC50 [2] | IC50 [3] | inhibition (INH) [4] | Activity [5] | Ki [6] | Activity [7] | Compound
9 | > 195 | 513 nM | – | Not Active | – | – | – | c1ccc(COc2ccc3c(c2)OCO3)cc1
10 | 579 | 48 nM | 27800 nM | – | – | – | – | c1ccc(CCOc2ccc3c(c2)OCCO3)cc1
11 | 11 | 7290 nM | 77100 nM | – | – | – | – | c1ccc(CCCOc2ccc3c(c2)OCO3)cc1
12 | > 59 | 1690 nM | – | Not Active | – | – | – | Clc1ccc(OCCOc2ccc3c(c2)OCO3)cc1
13 | > 14 | 7070 nM | – | Not Active | – | – | – | Brc1ccc(OCCOc2ccc3c(c2)OCO3)cc1
14 | > 88 | 1140 nM | – | Not Active | – | – | – | c1ccc(OCCOc2ccc3c(c2)OCO3)cc1
15 | 26 | 3310 nM | 87700 nM | – | – | – | – | c1ccc(CCOc2ccc3c(c2)OCO3)cc1
16 | 637 | 109 nM | 69400 nM | – | – | – | – | c1ccc(OCCOc2ccc3c(c2)OCCO3)cc1
